# Results as given in patent US20250263376A1, “(E)-N-CINNAMOYLAMINOALKANOLS WITH MELANOGENESIS INHIBITORY ACTIVITY” (Uniwersytet Jagiellonski, priority 2024, published 2025).
# Assays:
# [1] = test system: CHO-K1 cells; assay: Cytotoxicity (MTT) in CHO-K1 cells before the micronucleus test; assay type: cell-based, Chinese hamster; settings: 24 hours
# In short: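 CHO-K1 cells were grown in F-12K with 10% FBS at 37° C and incubated with compounds for 24 h, as a screen to set safe concentrations for the micronucleus test. Viability was read by MTT against a control given DMSO at the same concentration.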
# [2] = test system: S. typhimurium TA1537; assay: Ames microplate test, TA1537; assay type: cell-based, Salmonella typhimurium; settings: without S9
# Method: Bacteria were grown overnight in growth medium.
# [3] = test system: fibroblasts (BJ); assay: Safety, MTT test in fibroblasts; assay type: cell-based; settings: 48 hours
# Method: (§1) In order to test the safety of the compounds, both normal human cells were used: keratinocytes (HaCaT), fibroblasts (BJ), primary melanocytes that occur in the skin, as well as human cancer cells: the hepatocarcinoma line HepG2 and the neuroblastoma line SH-SY5Y, which are considered a model for the assessment of hepatocytotoxicity and neurocytotoxicity. The concentrations of the tested compounds in the range of […] were used in the studies. The cell lines used in the research were purchased from the American Type Culture Collection (ATCC) and were cultured in media recommended by the manufacturer with the addition of FBS and antibiotics in an incubator ensuring appropriate culture conditions, i.e. humidity, temperature and CO2 concentration. Cells were seeded into multiwell plates and incubated with the test compounds for 48 hours. After this time, MTT and LDH tests were performed to assess cell viability. The MTT test is based on the ability to transform the substrate: [3-(4,5-dimethyl-2-thiazolyl)-2,5-diphenyl-2H-tetrazolium bromide into a colored product only by living cells. The absorbance at 570 nm, which corresponds to the absorption maximum for the product, is directly proportional to cell viability. The LDH test is based on testing the activity of the enzyme lactate dehydrogenase in the culture medium, which is released from cells as a result of damage to the cell membrane, e.g. as a result of cell death. Triton X-100 was used as a positive control in the test. The determination is colorimetric, the substrate is transformed by the released enzyme into a colored product, an increase in absorbance indicates a larger amount of the released enzyme, and thus confirms greater damage to cell membranes. Tables 7 and 8 present the results obtained, which correspond to the viability of cells incubated with the compounds in relation to the viability of cells constituting a control sample, i.e. incubated with the solvent (DMSO) at the same concentration as in the case of the groups tested in the MTT test or in relation to the results obtained for the Triton X-100 positive control in the LDH test. They indicate that the compounds are safe at the concentrations tested.
# [4] = test system: E. coli WP2; assay: Ames microplate test, E. coli WP2; settings: without S9;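 further: bacteria exposed to compound for 90 min at 37 °C in 24-well plates, then transferred with indicator medium to 384-well plates and incubated 48 h before yellow well counting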
# [5] = test system: keratinocytes (HaCaT); assay: Safety, LDH test in keratinocytes; assay type: cell-based; settings: 48 hours, vs Triton X-100
# Method: as §1
# [6] = test system: S. typhimurium TA100; assay: Ames microplate test, TA100; assay type: cell-based, Salmonella typhimurium; settings: without S9
# [7] = test system: hepatocarcinoma HepG2; assay: Safety, MTT test in HepG2; assay type: cell-based; settings: 48 hours
# Method: as §1
# [8] = test system: S. typhimurium TA1535; assay: Ames microplate test, TA1535; settings: without S9;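 further: bacteria exposed 90 min at 37 °C in exposure medium, then 48 h in indicator medium in 384-well plates, yellow (revertant) wells counted per condition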
# [9] = test system: primary melanocytes; assay: Safety, MTT test in primary melanocytes; assay type: cell-based; settings: 48 hours
# Method: as §1
# [10] = test system: keratinocytes (HaCaT); assay: Safety, MTT test in keratinocytes; assay type: cell-based; settings: 48 hours
# Method: as §1
# [11] = test system: neuroblastoma SH-SY5Y; assay: Safety, MTT test in SH-SY5Y; assay type: cell-based; settings: 48 hours
# Method: as §1
# [12] = test system: neuroblastoma SH-SY5Y; assay: Safety, LDH test in SH-SY5Y; assay type: cell-based; settings: 48 hours, vs Triton X-100
# Method: as §1
smiles,measurement,setting,value
"Cc1ccc(/C=C/C(=O)NCCCCCO)cc1 [H-415/21, (2E)-N-(5-hydroxypentyl)-3-(4-methylphenyl)prop-2-enamide]","% Viability [mean], CHO-K1",[1]; 100 μM,102.2%
same,"% Viability [mean], CHO-K1",[1]; 150 μM,102.8%
same,"% Viability [mean], CHO-K1",[1]; 200 μM,87.2%
same,"Increase in the number of yellow wells compared to the reference level, TA1537",[2]; 0.5 mM,0.33
same,"Increase in the number of yellow wells compared to the reference level, TA1537",[2]; 1.0 mM,0.33
same,"Increase in the number of yellow wells compared to the reference level, TA1537",[2]; 2.0 mM,0.00
same,"MTT, Fibroblasts (BJ)",[3]; 100 μM,102.12 ± 2.71 % of solvent control
same,"MTT, Fibroblasts (BJ)",[3]; 150 μM,101.92 ± 2.88 % of solvent control
same,"MTT, Fibroblasts (BJ)",[3]; 200 μM,96.13 ± 3.64 % of solvent control
same,"MTT, Fibroblasts (BJ)",[3]; 250 μM,92.86 ± 4.30 % of solvent control
same,"Increase in the number of yellow wells compared to the reference level, E. coli WP2",[4]; 0.5 mM,0.64
same,"Increase in the number of yellow wells compared to the reference level, E. coli WP2",[4]; 1.0 mM,0.40
same,"Increase in the number of yellow wells compared to the reference level, E. coli WP2",[4]; 2.0 mM,0.95
same,"LDH, Keratinocytes (HaCaT)",[5]; 100 μM,2.95 percentage of positive control
same,"LDH, Keratinocytes (HaCaT)",[5]; 150 μM,6.70 percentage of positive control
same,"LDH, Keratinocytes (HaCaT)",[5]; 200 μM,10.18 percentage of positive control
same,"LDH, Keratinocytes (HaCaT)",[5]; 250 μM,18.19 percentage of positive control
same,"Increase in the number of yellow wells compared to the reference level, TA100",[6]; 0.5 mM,0.92
same,"Increase in the number of yellow wells compared to the reference level, TA100",[6]; 1.0 mM,0.58
same,"Increase in the number of yellow wells compared to the reference level, TA100",[6]; 2.0 mM,0.75
same,"MTT, Hepatocarcinoma HepG2",[7]; 100 μM,100.32 ± 1.75 % of solvent control
same,"MTT, Hepatocarcinoma HepG2",[7]; 150 μM,99.54 ± 5.74 % of solvent control
same,"MTT, Hepatocarcinoma HepG2",[7]; 200 μM,100.53 ± 3.98 % of solvent control
same,"MTT, Hepatocarcinoma HepG2",[7]; 250 μM,98.90 ± 4.21 % of solvent control
same,"Increase in the number of yellow wells compared to the reference level, TA1535",[8]; 0.5 mM,0.21
same,"Increase in the number of yellow wells compared to the reference level, TA1535",[8]; 1.0 mM,0.41
same,"Increase in the number of yellow wells compared to the reference level, TA1535",[8]; 2.0 mM,0.10
same,"MTT, Primary melanocytes",[9]; 100 μM,103.27 ± 1.88 % of solvent control
same,"MTT, Primary melanocytes",[9]; 150 μM,99.89 ± 2.43 % of solvent control
same,"MTT, Primary melanocytes",[9]; 200 μM,94.81 ± 2.92 % of solvent control
same,"MTT, Primary melanocytes",[9]; 250 μM,87.64 ± 1.44 % of solvent control
same,"MTT, Keratinocytes (HaCaT)",[10]; 100 μM,101.11 ± 2.03 % of solvent control
same,"MTT, Keratinocytes (HaCaT)",[10]; 150 μM,101.78 ± 2.32 % of solvent control
same,"MTT, Keratinocytes (HaCaT)",[10]; 200 μM,100.88 ± 1.40 % of solvent control
same,"MTT, Keratinocytes (HaCaT)",[10]; 250 μM,88.54 ± 3.74 % of solvent control
same,"MTT, Neuroblastoma SH-SY5Y",[11]; 100 μM,100.68 ± 4.63 % of solvent control
same,"MTT, Neuroblastoma SH-SY5Y",[11]; 150 μM,99.32 ± 2.96 % of solvent control
same,"MTT, Neuroblastoma SH-SY5Y",[11]; 200 μM,100.27 ± 3.50 % of solvent control
same,"MTT, Neuroblastoma SH-SY5Y",[11]; 250 μM,101.71 ± 2.38 % of solvent control
same,"LDH, Neuroblastoma SH-SY5Y",[12]; 100 μM,3.90 percentage of positive control
same,"LDH, Neuroblastoma SH-SY5Y",[12]; 150 μM,7.24 percentage of positive control
same,"LDH, Neuroblastoma SH-SY5Y",[12]; 200 μM,8.92 percentage of positive control
same,"LDH, Neuroblastoma SH-SY5Y",[12]; 250 μM,10.55 percentage of positive control
